The text below walks through data of ChEMBL document CHEMBL3400130, “Identification of apoptosis signal-regulating kinase 1 (ASK1) inhibitors among the derivatives of benzothiazol-2-yl-3-hydroxy-5-phenyl-1,5-dihydro-pyrrol-2-one” (Bioorg Med Chem, 2015).

For experiment [1], the target named is T1, Mitogen-activated protein kinase kinase kinase 5 (Homo sapiens, UniProt Q99683).
T1 sequence (Q99683 whole entry): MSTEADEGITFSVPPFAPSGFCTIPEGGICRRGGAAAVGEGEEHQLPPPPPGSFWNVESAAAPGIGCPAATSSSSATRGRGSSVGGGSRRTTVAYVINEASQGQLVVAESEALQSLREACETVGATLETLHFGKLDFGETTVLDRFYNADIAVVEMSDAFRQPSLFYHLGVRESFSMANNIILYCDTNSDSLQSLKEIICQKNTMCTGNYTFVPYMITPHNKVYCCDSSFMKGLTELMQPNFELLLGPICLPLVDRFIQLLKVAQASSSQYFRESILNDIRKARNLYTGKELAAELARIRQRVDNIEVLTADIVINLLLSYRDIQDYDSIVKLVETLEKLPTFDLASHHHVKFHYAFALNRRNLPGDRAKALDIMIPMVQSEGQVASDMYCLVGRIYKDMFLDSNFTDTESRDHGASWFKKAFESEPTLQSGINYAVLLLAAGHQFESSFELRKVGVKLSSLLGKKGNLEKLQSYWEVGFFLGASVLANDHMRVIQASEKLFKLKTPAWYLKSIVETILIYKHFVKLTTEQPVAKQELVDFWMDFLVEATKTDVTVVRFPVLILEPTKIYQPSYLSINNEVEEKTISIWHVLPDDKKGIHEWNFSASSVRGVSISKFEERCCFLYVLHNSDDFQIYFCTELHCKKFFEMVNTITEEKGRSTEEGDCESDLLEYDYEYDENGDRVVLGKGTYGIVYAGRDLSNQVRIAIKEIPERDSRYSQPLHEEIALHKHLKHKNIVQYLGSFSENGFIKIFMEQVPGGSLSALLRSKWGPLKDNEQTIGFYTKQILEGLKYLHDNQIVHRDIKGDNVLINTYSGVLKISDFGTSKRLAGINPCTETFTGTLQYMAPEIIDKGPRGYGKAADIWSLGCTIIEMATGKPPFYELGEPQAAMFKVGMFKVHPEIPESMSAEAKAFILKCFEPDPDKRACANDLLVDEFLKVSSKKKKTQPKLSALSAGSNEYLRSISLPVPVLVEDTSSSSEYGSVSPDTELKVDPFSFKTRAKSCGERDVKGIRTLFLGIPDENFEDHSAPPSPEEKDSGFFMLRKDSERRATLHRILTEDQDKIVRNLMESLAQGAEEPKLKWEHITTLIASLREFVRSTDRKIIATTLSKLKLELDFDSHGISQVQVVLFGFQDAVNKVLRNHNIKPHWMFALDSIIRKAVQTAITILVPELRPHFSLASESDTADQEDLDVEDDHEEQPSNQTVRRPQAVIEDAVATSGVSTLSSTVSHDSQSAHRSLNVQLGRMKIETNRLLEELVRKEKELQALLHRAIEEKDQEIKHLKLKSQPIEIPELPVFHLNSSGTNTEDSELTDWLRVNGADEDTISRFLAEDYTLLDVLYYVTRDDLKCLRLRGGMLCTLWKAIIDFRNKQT
As to the kind of experiment: Inhibition of recombinant ASK1 catalytic subunit (unknown origin) using MBP substrate and gamma-labeled 32P ATP incubated for 20 mins by liquid scintillation counting method.

Experiment [2] has as its target Mitogen-activated protein kinase 10 (Homo sapiens) (UniProt P53779). As to the kind of experiment: Inhibition of JNK3 (unknown origin) assessed as residual enzyme activity at 10 uM using JNK3tide substrate.
Experiment [3] deals with Casein kinase II (Homo sapiens) (UniProt P67870+P68400+P19784). As to the kind of experiment: Inhibition of CK2 (unknown origin) assessed as residual enzyme activity at 10 uM using RRRDDDSDDD substrate peptide. The class given is protein-complex assay.
Experiment [4] has as its target Fibroblast growth factor receptor 1 (Homo sapiens) (UniProt P11362). Put plainly: Inhibition of FGFR1 (unknown origin) assessed as residual enzyme activity at 10 uM using IGF-IRtide (12 to 527) substrate.
Experiment [5] concerns the target T2, Aurora kinase A (Homo sapiens) (UniProt O14965).
T2 sequence (whole entry): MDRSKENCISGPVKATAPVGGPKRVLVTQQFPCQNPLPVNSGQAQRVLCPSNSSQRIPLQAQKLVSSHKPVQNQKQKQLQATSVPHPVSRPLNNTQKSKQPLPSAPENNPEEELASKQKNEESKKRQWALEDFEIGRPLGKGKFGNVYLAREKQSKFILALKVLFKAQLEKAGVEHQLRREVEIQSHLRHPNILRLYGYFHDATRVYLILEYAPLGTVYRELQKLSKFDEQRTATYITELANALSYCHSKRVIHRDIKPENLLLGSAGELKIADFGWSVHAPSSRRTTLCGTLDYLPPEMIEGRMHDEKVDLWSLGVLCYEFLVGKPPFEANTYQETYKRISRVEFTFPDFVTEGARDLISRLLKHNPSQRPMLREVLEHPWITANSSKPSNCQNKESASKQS
Put plainly: Inhibition of Aurora A (unknown origin) assessed as residual enzyme activity at 10 uM using kemptide substrate.

Experiment [6] addresses Angiopoietin-1 receptor (Homo sapiens) (UniProt Q02763). Put plainly: Inhibition of Tie2 (unknown origin) assessed as residual enzyme activity at 10 uM using TK Substrate 2 (poly Glu-Tyr) substrate.
Experiment [7] deals with T3, Mitogen-activated protein kinase kinase kinase 5 (Homo sapiens) (UniProt Q99683).
T3 sequence (whole entry): T1 sequence (Q99683 whole entry)
Put plainly: Inhibition of recombinant ASK1 catalytic subunit (unknown origin) assessed as residual enzyme activity at 10 uM using MBP substrate and gamma-labeled 32P ATP incubated for 20 mins by liquid scintillation counting method.

Fibroblast growth factor receptor 1 (Homo sapiens), sequence (P11362 22-822 limits assumed): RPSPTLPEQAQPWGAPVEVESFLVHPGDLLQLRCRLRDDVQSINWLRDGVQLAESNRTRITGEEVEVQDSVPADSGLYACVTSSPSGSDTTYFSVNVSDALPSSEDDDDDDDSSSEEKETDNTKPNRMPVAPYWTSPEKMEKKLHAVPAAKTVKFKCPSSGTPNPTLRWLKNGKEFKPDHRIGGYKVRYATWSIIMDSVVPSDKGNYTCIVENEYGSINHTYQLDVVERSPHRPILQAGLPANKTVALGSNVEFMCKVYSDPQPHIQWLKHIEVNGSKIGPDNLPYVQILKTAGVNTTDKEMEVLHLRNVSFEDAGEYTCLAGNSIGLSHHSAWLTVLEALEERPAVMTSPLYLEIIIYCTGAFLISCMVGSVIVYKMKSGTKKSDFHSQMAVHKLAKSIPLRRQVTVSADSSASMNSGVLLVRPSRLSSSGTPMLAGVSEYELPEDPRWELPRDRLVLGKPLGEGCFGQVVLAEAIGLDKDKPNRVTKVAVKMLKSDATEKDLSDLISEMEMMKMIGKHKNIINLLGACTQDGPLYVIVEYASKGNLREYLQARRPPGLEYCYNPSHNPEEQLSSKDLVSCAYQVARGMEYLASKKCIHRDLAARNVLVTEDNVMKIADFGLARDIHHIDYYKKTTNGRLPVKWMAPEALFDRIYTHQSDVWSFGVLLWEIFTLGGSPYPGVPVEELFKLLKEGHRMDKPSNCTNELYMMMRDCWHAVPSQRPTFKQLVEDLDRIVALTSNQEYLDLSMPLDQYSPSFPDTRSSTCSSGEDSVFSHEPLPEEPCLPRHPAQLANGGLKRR
Mitogen-activated protein kinase 10 (Homo sapiens), sequence (P53779 whole entry): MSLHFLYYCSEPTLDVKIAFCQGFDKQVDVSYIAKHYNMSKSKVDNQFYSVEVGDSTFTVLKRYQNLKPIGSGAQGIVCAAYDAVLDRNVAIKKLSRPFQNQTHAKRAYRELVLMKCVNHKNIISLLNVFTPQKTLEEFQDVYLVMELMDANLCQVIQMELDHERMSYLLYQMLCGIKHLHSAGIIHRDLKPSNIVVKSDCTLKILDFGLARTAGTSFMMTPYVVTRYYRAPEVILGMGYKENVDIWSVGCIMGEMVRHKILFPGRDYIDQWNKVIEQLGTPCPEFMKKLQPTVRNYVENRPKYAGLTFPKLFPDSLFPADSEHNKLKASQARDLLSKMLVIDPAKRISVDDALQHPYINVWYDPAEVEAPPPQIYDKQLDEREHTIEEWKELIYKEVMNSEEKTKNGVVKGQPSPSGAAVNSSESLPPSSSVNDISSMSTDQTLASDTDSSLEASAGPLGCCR
Angiopoietin-1 receptor (Homo sapiens), sequence (Q02763 whole entry): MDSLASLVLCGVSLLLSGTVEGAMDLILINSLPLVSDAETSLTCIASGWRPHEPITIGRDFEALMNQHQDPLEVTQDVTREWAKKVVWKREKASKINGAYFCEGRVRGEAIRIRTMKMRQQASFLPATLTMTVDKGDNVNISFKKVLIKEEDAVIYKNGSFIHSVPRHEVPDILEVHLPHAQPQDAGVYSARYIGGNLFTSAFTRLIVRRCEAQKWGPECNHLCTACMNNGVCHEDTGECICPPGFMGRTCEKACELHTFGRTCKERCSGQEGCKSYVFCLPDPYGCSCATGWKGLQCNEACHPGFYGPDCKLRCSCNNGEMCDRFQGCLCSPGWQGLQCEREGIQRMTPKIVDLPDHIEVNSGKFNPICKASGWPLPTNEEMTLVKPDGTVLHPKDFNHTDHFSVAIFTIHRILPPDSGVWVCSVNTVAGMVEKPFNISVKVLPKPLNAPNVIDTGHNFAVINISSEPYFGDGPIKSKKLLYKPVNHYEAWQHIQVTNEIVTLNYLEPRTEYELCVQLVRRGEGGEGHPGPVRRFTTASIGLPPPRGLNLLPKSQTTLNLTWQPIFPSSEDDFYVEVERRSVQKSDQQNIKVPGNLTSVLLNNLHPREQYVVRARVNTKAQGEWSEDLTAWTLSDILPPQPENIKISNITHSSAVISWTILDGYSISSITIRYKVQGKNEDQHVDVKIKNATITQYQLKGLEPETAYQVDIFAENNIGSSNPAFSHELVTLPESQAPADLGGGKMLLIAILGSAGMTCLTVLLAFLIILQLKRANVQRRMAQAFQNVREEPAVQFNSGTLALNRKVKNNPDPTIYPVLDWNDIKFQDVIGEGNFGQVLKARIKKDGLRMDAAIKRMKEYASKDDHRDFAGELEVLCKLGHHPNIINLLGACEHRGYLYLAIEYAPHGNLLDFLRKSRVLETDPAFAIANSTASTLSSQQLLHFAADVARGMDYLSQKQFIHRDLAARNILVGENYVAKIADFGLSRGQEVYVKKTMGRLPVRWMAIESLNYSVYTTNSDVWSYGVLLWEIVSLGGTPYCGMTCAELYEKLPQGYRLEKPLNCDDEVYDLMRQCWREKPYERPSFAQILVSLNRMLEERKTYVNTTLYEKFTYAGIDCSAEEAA

Turning to `Cc1ccc2nc(N3C(=O)C(O)=C(C(=O)c4ccco4)C3c3ccc(Br)cc3)sc2c1` (configuration not stated), the half-inhibitory concentration (IC50) in experiment [1] amounted to 28.2 µM.
In the case of `CCOc1ccc(C2C(C(=O)c3cccs3)=C(O)C(=O)N2c2nc3ccc(C)cc3s2)cc1` (configuration not stated), the IC50 in experiment [1] came to 9.1 µM.
The same measure, in the same setting: with `O=C(C1=C(O)C(=O)N(c2nc3ccc(F)cc3s2)C1c1ccc(Br)cc1)c1ccco1` (configuration not stated) the figure was 28.2 µM.
Turning to `CCCCOc1ccc(C2C(C(=O)c3ccc4c(c3)OCCO4)=C(O)C(=O)N2c2nc3ccc(Cl)cc3s2)cc1OCC` (configuration not stated), the Activity in experiment [2] turned out to be 100%; in experiment [3], 89.7%; in experiment [4], 18%; in experiment [5] it was 28.8%; in experiment [6] it was 78.8%; in experiment [7], 19.7%. For the same molecule, the IC50 in experiment [1] worked out at 3.6 µM.
As to `CC(C)CCOc1cccc(C2C(C(=O)c3ccc4c(c3)CC(C)O4)=C(O)C(=O)N2c2nc3ccc(F)cc3s2)c1` (configuration not stated), the Activity came to 100% in experiment [2]; 83.4% in experiment [3]; 100% in experiment [4]; 44.7% in experiment [5]; 100% in experiment [6]; 14% in experiment [7]. The IC50 in experiment [1] was determined as 0.52 µM.
For the molecule `Cc1ccc(C(=O)C2=C(O)C(=O)N(c3nc4ccc(C)cc4s3)C2c2ccc(C(C)(C)C)cc2)cc1` (configuration not stated), the IC50 in experiment [1] is 4.4 µM.
Consider `Cc1cc(C)c2nc(N3C(=O)C(O)=C(C(=O)c4ccco4)C3c3ccccc3)sc2c1` (configuration not stated), for which the IC50 in experiment [1] worked out at 63 µM.
As for `O=C(C1=C(O)C(=O)N(c2nc3ccc(F)cc3s2)C1c1cccc(Cl)c1)c1cccs1` (configuration not stated), the Activity stood at 89.9% in experiment [2]; 71.5% in experiment [3]; 74.4% in experiment [4]; 28.1% in experiment [5]; 63.5% in experiment [6]; 27.6% in experiment [7]. The concentration for half-maximal inhibition (IC50) in experiment [1] came to 4.5 µM.
`COc1ccc(C2C(C(=O)c3ccc(C)o3)=C(O)C(=O)N2c2nc3ccc(C)cc3s2)cc1OC` (configuration not stated): the half-maximal inhibitory concentration (IC50) in experiment [1] came to 38 µM.
For `Cc1ccc(C(=O)C2=C(O)C(=O)N(c3nc4ccc(F)cc4s3)C2c2ccc(C(C)(C)C)cc2)cc1` (configuration not stated), in experiment [1], the IC50 was found to be 7.6 µM.
Consider `CCCCOc1ccc(C2C(C(=O)c3ccc4c(c3)OCCO4)=C(O)C(=O)N2c2nc3ccc(Cl)cc3s2)cc1` (configuration not stated), for which the Activity is 100% in experiment [2]; 99.3% in experiment [3]; 36.2% in experiment [4]; 35.2% in experiment [5]; 100% in experiment [6]; 15.8% in experiment [7]. For the same molecule, the IC50 in experiment [1] was determined as 5.2 µM.
For `CCOc1ccc(C(=O)C2=C(O)C(=O)N(c3nc4ccc(C)cc4s3)C2c2ccc(F)cc2)cc1` (configuration not stated), the half-inhibitory concentration (IC50) in experiment [1] is 5.5 µM.
Turning to `CCCCCOc1ccc(C2C(C(=O)c3ccc4c(c3)OCCO4)=C(O)C(=O)N2c2nc3ccc(C)cc3s2)cc1` (configuration not stated), the Activity was 92.5% in experiment [2]; 90% in experiment [3]; 25.5% in experiment [4]; 28.1% in experiment [5]; 59.9% in experiment [6]; 13.2% in experiment [7]. Further, in experiment [1], the IC50 came to 5.2 µM.
In the case of `O=C(C1=C(O)C(=O)N(c2nc3ccc(F)cc3s2)C1c1cccc(F)c1)c1ccco1` (configuration not stated), the IC50 in experiment [1] is 42.6 µM.
As for `CCCCOc1ccc(C2C(C(=O)c3ccc4c(c3)OCCO4)=C(O)C(=O)N2c2nc3ccc(C)cc3s2)cc1` (configuration not stated), the Activity stood at 100% in experiment [2]; 85.6% in experiment [3]; 58.1% in experiment [4]; 20.5% in experiment [5]; 94.2% in experiment [6]; 19.8% in experiment [7]. Moreover, the half-inhibitory concentration (IC50) in experiment [1] was 4.6 µM.
Turning to `CC(C)(C)c1ccc(C2C(C(=O)c3ccc4c(c3)OCCO4)=C(O)C(=O)N2c2nc3ccc(Cl)cc3s2)cc1` (configuration not stated), the Activity in experiment [2] was 100%; in experiment [3], 83.6%; in experiment [4], 46.8%; in experiment [5], 52.9%; in experiment [6] it was 92.5%; in experiment [7], 12.3%. Further, the concentration for half-maximal inhibition (IC50) in experiment [1] was determined as 2.5 µM.
For the molecule `CCCOc1ccc(C2C(C(=O)c3ccc4c(c3)OCCO4)=C(O)C(=O)N2c2nc3ccc(C)cc3s2)cc1` (configuration not stated), the Activity worked out at 80% in experiment [2]; 81.8% in experiment [3]; 22.6% in experiment [4]; 49.5% in experiment [5]; 99.2% in experiment [6]; 43% in experiment [7]. Besides, in experiment [1], the concentration for half-maximal inhibition (IC50) turned out to be 2 µM.
As to `COc1ccc2nc(N3C(=O)C(O)=C(C(=O)c4ccco4)C3c3ccc(Cl)cc3)sc2c1` (configuration not stated), the Activity came out at 96.8% in experiment [2]; 73.9% in experiment [3]; 46.4% in experiment [4]; 48.1% in experiment [5]; 66.4% in experiment [6]; 39.1% in experiment [7]. In experiment [1], the half-maximal inhibitory concentration (IC50) was 4.2 µM.
With `CCOc1ccc2nc(N3C(=O)C(O)=C(C(=O)c4ccccc4)C3c3ccc(Cl)cc3)sc2c1` (configuration not stated), the Activity is 100% in experiment [2]; 79.3% in experiment [3]; 65.7% in experiment [4]; 36.5% in experiment [5]; 62.8% in experiment [6]; 16.2% in experiment [7]. In addition, in experiment [1], the concentration for half-maximal inhibition (IC50) came out at 4.2 µM.
For the molecule `Cc1cc(C)c2nc(N3C(=O)C(O)=C(C(=O)c4ccc(C)o4)C3c3ccc(C(C)C)cc3)sc2c1` (configuration not stated), in experiment [1], the half-inhibitory concentration (IC50) stood at 2 µM.
`O=C(C1=C(O)C(=O)N(c2nc3ccc(F)cc3s2)C1c1cccc(Br)c1)c1ccco1` (configuration not stated): in experiment [1], the IC50 was determined as 29.5 µM.
For the molecule `Cc1ccc2nc(N3C(=O)C(O)=C(C(=O)c4ccco4)C3c3cccc(Br)c3)sc2c1` (configuration not stated), the concentration for half-maximal inhibition (IC50) in experiment [1] was 31 µM.
On the same count and under the same terms, the same measure for `COc1ccccc1C1C(C(=O)c2ccc(C)o2)=C(O)C(=O)N1c1nc2c(C)cc(C)cc2s1` (configuration not stated): 35.5 µM.
`COc1ccc(C(=O)C2=C(O)C(=O)N(c3nc4ccc(F)cc4s3)C2c2cccc(F)c2)cc1` (configuration not stated): the IC50 in experiment [1] is 17 µM.
Consider `CCOc1ccc2nc(N3C(=O)C(O)=C(C(=O)c4ccc(C)cc4)C3c3ccc(C(C)(C)C)cc3)sc2c1` (configuration not stated), for which the Activity in experiment [2] was 100%; in experiment [3] it was 97.8%; in experiment [4] it was 40.3%; in experiment [5], 52%; in experiment [6], 100%; in experiment [7], 23.5%. In addition, in experiment [1], the IC50 stood at 2 µM.
On to `Cc1ccc2nc(N3C(=O)C(O)=C(C(=O)c4ccco4)C3c3ccc(Cl)cc3)sc2c1` (configuration not stated), for which, in experiment [1], the IC50 was found to be 30.2 µM.
As to `O=C(C1=C(O)C(=O)N(c2nc3ccc(F)cc3s2)C1c1cccc(Cl)c1)c1ccco1` (configuration not stated), in experiment [1], the IC50 came to 28.2 µM.
On the same count and under the same terms, with `CCOc1ccc2nc(N3C(=O)C(O)=C(C(=O)c4ccccc4)C3c3ccc(C(C)(C)C)cc3)sc2c1` (configuration not stated) the figure was 5 µM; with `Cc1cc(C)c2nc(N3C(=O)C(O)=C(C(=O)c4ccc(Cl)cc4)C3c3ccc(C(C)C)cc3)sc2c1` (configuration not stated), 6.3 µM; with `Cc1ccc2nc(N3C(=O)C(O)=C(C(=O)c4ccc(F)cc4)C3c3ccc(Cl)cc3)sc2c1` (configuration not stated), 2.9 µM.
For the molecule `CCCOc1ccc(C2C(C(=O)c3ccc4c(c3)OCCO4)=C(O)C(=O)N2c2nc3ccc(Cl)cc3s2)cc1` (configuration not stated), the IC50 in experiment [1] turned out to be 5 µM.
